# Data as given in patent publication US11007554B2, “Method, system and device for reducing microbial concentration and/or biofilm formation” (EMODs Technology, L.L.C., priority 2018, dated 2021).
# Read-outs that look alike come from different tables or passages of the source.
# Tested on: microbes
smiles,measurement,setting,value
OO [hydrogen peroxide],microbes eliminated,3% hydrogen peroxide together with radiation of a wavelength between 300 and 600 nanometers,99.999%
same,microbes eliminated,3% solution of hydrogen peroxide alone,approximately 30%
